{"source": "paper PMC10720383", "about": "“Acetylcholinesterase Inhibition in Rats and Humans Following Acute Fenitrothion Exposure Predicted by Physiologically Based Kinetic Modeling-Facilitated Quantitative In Vitro to In Vivo Extrapolation” (Environmental Science & Technology, 2023)", "key": {"[1]": {"settings": "humans, oral exposure; cited from earlier work"}, "erythrocyte AChE": {"tested_on": "erythrocyte AChE", "assay": "PBK modeling-facilitated QIVIVE and BMD analysis, human", "experimental": "For toxicity prediction, the maximum blood FNO concentration was used as a dose metric relating AChE inhibition to acute FNT exposure (see section 3.3). Since the in vitro AChE inhibition under increasing FNO concentrations was tested in rat and human blood, these nominal concentrations could be used directly as the biological effective concentrations (in vivo maximum blood FNO concentrations), and no extra correction for differences in in vitro and in vivo protein binding was deemed necessary. Then the corresponding FNT dose levels resulting in these in vivo concentrations were derived via PBK modeling-facilitated reverse dosimetry. In doing so, the in vitro concentration–response relationship was converted to the predicted in vivo dose-dependent erythrocyte AChE inhibition, which was then compared to available in vivo toxicity data in rats and humans.[8],[39]\nBMD modeling was used to derive POD values from the predicted in vivo dose-dependent data sets for rats and humans. A BMD value resulting in a 10% benchmark response (BMR) change with lower 95% confidence limit was defined as BMDL10, and the obtained values for rats and humans were evaluated against the reported NOAELs.[1],[11]−[13] Details and results of BMD analysis are provided in the Supporting Information. […]\nBMD modeling was used to derive POD values from the predicted in vivo dose-response curves for rats and humans. The EFSA web-tool (https://efsa.openanalytics.eu/) integrated with the R package PROAST (version 70.0) developed by the Dutch National Institute for Public Health and the Environment (RIVM) was used for the BMD analysis. A BMD value resulting in a 10% benchmark response (BMR) change with lower 95% confidence limit was defined as BMDL10. Briefly, the continuous data were fitted to a set of models (Exponential, Hill, Inverse Exponential, and Log-Normal family models), and all fitted models excluding the FULL and NULL models were used for model averaging via a weighted average model. […]"}, "PON1 [2]": {"target": "T1, PON1 (Homo sapiens, UniProt P27169)", "T1 construct": "gender-mixed liver microsomes or plasma from rats and humans; tissue BioIVT (West Sussex, UK); host or cells: human plasma pooled from 25 donors, mixed gender", "assay": "in vitro", "assay_type": "in vitro ADME", "settings": "both sexes, pH 7.4, gender-mixed", "experimental": "(§1) In vitro incubations were performed to obtain kinetic parameters for the CYP450s-catalyzed conversion of FNT to FNO and MNP using gender-mixed rat and human liver microsomes. For the PON1-dominated detoxification of FNO to MNP, in vitro incubations were conducted with gender-mixed liver microsomes or plasma from rats and humans. Sample extraction with diisopropyl ether was performed before UPLC-PDA analysis. More details on in vitro incubations, sample extraction, UPLC-PDA analysis, and calculation of kinetic parameters are provided in the Supporting Information. […]\n(§2) All incubations were performed in triplicate.\n(§3) In vitro incubations for metabolic conversions of FNO\n(§4) Incubations with liver microsomes and plasma were performed to obtain kinetic parameters for PON1-mediated detoxification of FNO to MNP based on a modified method (Zhao et al. 2021). Incubation conditions that were suitable for linearity with respect to time and microsomal protein or plasma protein concentration were defined (data not shown). The final incubation mixtures with a total volume of 200 µL contained 50 mM Tris-HCl (pH 7.4), 2 mM CaCl2 as PON1 activity simulator, and FNO at final concentrations ranging from 25 to 5000 µM (added from 100 times concentrated stock solutions in acetonitrile). Controls differed from test incubations by the absence of liver microsomes or plasma, which was replaced with Tris-HCl. After 1-min pre-incubation in a 37°C water bath, 2 µL rat or 10 µL human liver microsomes (final concentration 0.2 and 1 mg microsomal protein/mL for rat and human samples, respectively) was added to initiate the reaction. For the plasma incubations, 4 µL of rat plasma or 10 µL human plasma (final concentration 1.2 and 3.3 mg plasma protein/mL for rat and human samples, respectively) was used. Reactions were terminated after incubating 10 min for rat samples or 20 min for human samples by adding 20 µL ice-cold HClO4 (10%, v/v), and samples were kept on ice until further extraction. All incubations were performed in triplicate.\n(§5) DIPE extraction of FNT and its metabolites (Zhao et al. 2019; Wang et al. 2022) was performed before UPLC analysis. […]\n(§6) Finally, the obtained residue was redissolved in 100 μL methanol, and subsequently analyzed with […]\n(§7) The quantification of FNT, FNO and MNP was conducted using a Shimadzu Nexera X2 liquid chromatography system (LC-30AD, Kyoto, Japan), connected with a photodiode array detector (SPD-M30A, Shimadzu, Kyoto, Japan). […]\n(§8) temperature at 10°C during analysis. […] Quantification of FNT and FNO was performed by integrating peak areas at 269 nm and for MNP at 315 nm using calibration curves (r2 > 0.99) prepared with commercial standards. The limit of quantification was 0.1 µM for FNT, FNO and MNP when using an injection volume of 20 µL. […]"}, "PON1 [3]": {"target": "T2, PON1 (Rattus norvegicus, UniProt P55159)", "T2 construct": "gender-mixed liver microsomes or plasma from rats and humans; tissue Corning (male) and Sigma-Aldrich (female), pooled; host or cells: Sprague-Dawley rat liver microsomes, gender-mixed", "T2 sequence (P55159 whole entry)": "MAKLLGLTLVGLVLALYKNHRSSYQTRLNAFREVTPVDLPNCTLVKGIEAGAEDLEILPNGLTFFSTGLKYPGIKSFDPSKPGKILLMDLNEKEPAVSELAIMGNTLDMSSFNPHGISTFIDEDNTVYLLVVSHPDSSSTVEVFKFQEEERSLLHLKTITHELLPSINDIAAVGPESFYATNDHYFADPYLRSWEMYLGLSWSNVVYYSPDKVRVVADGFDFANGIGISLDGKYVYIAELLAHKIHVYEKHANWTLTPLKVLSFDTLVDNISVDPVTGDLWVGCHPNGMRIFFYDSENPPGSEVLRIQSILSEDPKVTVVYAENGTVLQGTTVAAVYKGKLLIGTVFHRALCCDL", "assay": "in vitro", "assay_type": "in vitro ADME", "settings": "both sexes, Sprague-Dawley, pH 7.4, gender-mixed", "experimental": "as §1, §2, §3, §4, §5, §6, §7, §8"}}, "note": "Read-outs that look alike come from different tables or passages of the source.", "data": [{"smiles": "COP(=S)(OC)Oc1ccc([N+](=O)[O-])c(C)c1", "note": "[FNT, O,O-dimethyl O-4-nitro-m-tolyl phosphorothioate]", "values": [{"measurement": "fraction of the dose absorbed (Fa)", "setting": "[1]", "value": 0.7}, {"measurement": "predicted POD for humans, fold lower than that of rats", "setting": "erythrocyte AChE; BMDL10 rat vs human", "value": 5, "unit": "fold"}, {"measurement": "predicted BMDL10 (POD)", "setting": "erythrocyte AChE; human, erythrocyte AChE inhibition, acute oral FNT exposure, 10% BMR, lower 95% confidence limit", "value": 0.26, "unit": "mg/kg BW"}, {"measurement": "BMDU10", "setting": "erythrocyte AChE; human, erythrocyte AChE inhibition, acute oral FNT exposure, upper confidence limit", "value": 0.66, "unit": "mg/kg BW"}]}, {"smiles": "COP(=O)(OC)Oc1ccc([N+](=O)[O-])c(C)c1", "note": "[FNO, fenitrooxon]", "values": [{"measurement": "Km", "setting": "PON1 [2]; human liver microsomes, read-out: Km, FNO to MNP (PON1-catalyzed), liver", "value": 12.6, "unit": "mM"}, {"measurement": "Km", "setting": "PON1 [2]; human plasma, read-out: Km, FNO to MNP (PON1-catalyzed), plasma", "value": 5.49, "unit": "mM"}, {"measurement": "Km", "setting": "PON1 [3]; rat liver microsomes, read-out: Km, FNO to MNP (PON1-catalyzed), liver", "value": 4.53, "unit": "mM"}, {"measurement": "Km", "setting": "PON1 [3]; rat plasma, read-out: Km, FNO to MNP (PON1-catalyzed), plasma", "value": 4.08, "unit": "mM"}]}]}
